ChEMBL document CHEMBL5728630, “Aryl, heteroaryl, and heterocyclic pharmaceutical compounds for treatment of medical disorders” (2021)

target: Complement factor D (Homo sapiens, UniProt P00746); test: Factor D Assay: Human Factor D (purified from human serum, Complement Technology, Inc.) at 80 nM final concentration is incubated with test compound at various concentrations for 5 min at room temperature in 50 mM Tris, 1M NaCl, pH 7.5. A synthetic substrate Z-L-Lys-SBz and DTNB (Ellman's reagent) are added to final concentrations of 100 μM each. Absorbance at 405 nm (A405) is recorded at 30 second intervals for 30 min using a microplate spectrophotometer. IC50 values are calculated by nonlinear regression of complement Factor D reaction rates as a function of test compound concentration.
Sequence (P00746 whole entry): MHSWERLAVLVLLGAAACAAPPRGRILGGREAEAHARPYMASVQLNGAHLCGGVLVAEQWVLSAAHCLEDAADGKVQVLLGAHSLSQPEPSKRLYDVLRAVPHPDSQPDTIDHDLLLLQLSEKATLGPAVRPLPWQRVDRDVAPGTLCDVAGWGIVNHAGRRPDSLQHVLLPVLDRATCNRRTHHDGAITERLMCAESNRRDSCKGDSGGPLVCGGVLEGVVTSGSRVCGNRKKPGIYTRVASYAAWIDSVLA

Structure (SMILES) | IC50 [nM]
CC(=O)c1nn(CC(=O)N2[C@H](C(=O)Nc3nc(Br)ccc3C)C[C@@]3(CF)C[C@@H]23)c2c(C)cc(-c3cnc(C)nc3)cc12 | < 1000
CC(=O)c1nn(CC(=O)N2[C@H](C(=O)Nc3nc(Br)ccc3C3COC(=O)O3)C[C@@]3(C)C[C@@H]23)c2cnc(-c3cnc(C)nc3)cc12 (some centres undefined) | < 1000
Cc1ncc(-c2cc(C)c3c(c2)c(C2COC2)nn3CC(=O)N2[C@H](C(=O)Nc3nc(Br)ccc3C)C[C@@]3(C)C[C@@H]23)cn1 | < 1000
Cc1ncc(-c2ccc3c(c2)c(C(N)=O)nn3CC(=O)N2[C@H](C(=O)Nc3nc(Br)ccc3C)C[C@@]3(C)C[C@@H]23)cn1 | < 1000
CC(=O)c1nn(CC(=O)N2[C@H](C(=O)Nc3nc(Br)ccc3C)C[C@@]3(CC#N)C[C@@H]23)c2c(C)cc(-c3cnc(C)nc3)cc12 | < 1000
CC(=O)c1nn(CC(=O)N2[C@H](C(=O)Nc3nc(Br)ccc3C)C[C@@]3(C)C[C@@H]23)c2c(C)cc(-c3cnc(C4(O)COC4)nc3)cc12 | < 1000
CC(=O)c1nn(CC(=O)N2[C@H](C(=O)NCC(C)(C)C)C[C@@]3(C)C[C@@H]23)c2ccc(-c3cnc(C)nc3)cc12 | < 1000
COCc1ccc(Br)nc1NC(=O)[C@@H]1C[C@@]2(C)C[C@H]2N1C(=O)Cn1nc(C(C)=O)c2cc(-c3cnc(C)nc3)cc(COC)c21 | < 1000
CC(=O)c1nn(CC(=O)N2[C@H](C(=O)Nc3cc(C(=O)O)cc(Br)n3)C[C@@]3(C)C[C@@H]23)c2c(CN)cc(-c3cnc(C)nc3)cc12 | < 1000
CC(=O)c1nn(CC(=O)N2[C@H](C(=O)N[C@H](C)c3ccccc3)C[C@@]3(C)C[C@@H]23)c2c(C)cc(-c3cnc(C)nc3)cc12 | < 1000
CC(=O)c1nn(CC(=O)N2[C@H](C(=O)NCc3cccnc3)C[C@@]3(C)C[C@@H]23)c2c(C)cc(-c3cnc(C)nc3)cc12 | < 1000
CC(=O)c1nn(CC(=O)N2[C@H](C(=O)NCc3ccccc3)C[C@@]3(C)C[C@@H]23)c2ccc(-c3cnc(C)nc3)cc12 | < 1000
CC(=O)c1nn(CC(=O)N2[C@H](C(=O)Nc3nc(Br)ccc3C)C[C@@]3(C4COC(C)(C)O4)C[C@@H]23)c2cnc(-c3cnc(C)nc3)cc12 (some centres undefined) | < 1000
CC(=O)c1nn(CC(=O)N2[C@H]3C[C@@]3(CF)C[C@H]2C(=O)Nc2nc(Br)ccc2C)c2cnc(-c3cnc(C)nc3)cc12 | < 1000
CC(=O)c1nn(CC(=O)N2[C@H](C(=O)NCc3ncccn3)C[C@@]3(C)C[C@@H]23)c2c(C)cc(-c3cnc(C)nc3)cc12 | < 1000
CC(=O)c1nn(CC(=O)N2[C@H](C(=O)Nc3nc(Br)ccc3CN3CCC(C)(F)CC3)C[C@@]3(C)C[C@@H]23)c2cnc(-c3cnc(C)nc3)cc12 | < 1000
Cc1ncc(-c2cc(C)c3c(c2)c(I)nn3CC(=O)N2[C@H](C(=O)Nc3nc(Br)ccc3C)C[C@@]3(C)C[C@@H]23)cn1 | < 1000
CC(=O)c1nn(CC(=O)N2[C@H](C(=O)Nc3nc(Br)ccc3C)C[C@@]3(C)C[C@@H]23)c2c(C(C)F)cc(-c3cnc(C)nc3)cc12 (some centres undefined) | < 1000
CCNC(=O)[C@@H]1C[C@@]2(C)C[C@H]2N1C(=O)Cn1nc(C(C)=O)c2cc(-c3cnc(C)nc3)cc(C)c21 | < 1000
CC(=O)c1nn(CC(=O)N2[C@H](C(=O)Nc3nc(Br)ccc3C)C[C@@]3(CC(O)CO)C[C@@H]23)c2cnc(-c3cnc(C)nc3)cc12 (some centres undefined) | < 1000
CC(=O)c1nn(CC(=O)N2[C@H](C(=O)Nc3cccc(Br)n3)C[C@@]3(C)C[C@@H]23)c2c(C)cc(-c3cnc(C)nc3)cc12 | < 1000
Cc1ncc(-c2cc3c(C(N)=O)nn(CC(=O)N4[C@H](C(=O)Nc5nc(Br)c(F)cc5C)C[C@@]5(C)C[C@@H]45)c3cn2)cn1 | < 1000
CC(=O)c1nn(CC(=O)N2[C@H](C(=O)Nc3nc(Br)ccc3C)C[C@@]3(CN4CC(O)C4)C[C@@H]23)c2c(C)cc(-c3cnc(C)nc3)cc12 | < 1000
CC(=O)c1nn(CC(=O)N2[C@H](C(=O)Nc3nc(Br)ccc3C)C[C@@]3(CF)C[C@@H]23)c2cnc(-c3cnc(C)nc3)cc12 | < 1000
CC(=O)c1nn(CC(=O)N2[C@H](C(=O)Nc3nc(Br)ccc3C)C[C@@]3(CNCc4ccccc4)C[C@@H]23)c2c(C)cc(-c3cnc(C)nc3)cc12 | < 1000
CC(=O)c1nn(CC(=O)N2[C@H](C(=O)Nc3nc(Br)ccc3C)C[C@@]3(CN4CC(F)(F)C4)C[C@@H]23)c2cnc(-c3cnc(C)nc3)cc12 | < 1000
CC(=O)c1nn(CC(=O)N2[C@H](C(=O)Nc3nc(C(F)(F)F)ccc3C)C[C@@]3(C)C[C@@H]23)c2cnc(-c3cnc(C)nc3)cc12 | < 1000
Cc1ncc(-c2ccc3c(c2)c(C(=O)NC2CC2)nn3CC(=O)N2[C@H](C(=O)Nc3nc(Br)ccc3C)C[C@@]3(C)C[C@@H]23)cn1 | < 1000
Cc1ncc(-c2ccc3c(c2)c(C(=O)NC(C)C2CC2)nn3CC(=O)N2[C@H](C(=O)Nc3nc(Br)ccc3C)C[C@@]3(C)C[C@@H]23)cn1 (some centres undefined) | < 1000
